Experimental findings from PubChem BioAssay AID1349 (Sanford-Burnham Center for Chemical Genomics, 2008) are described below.

This assay deals with CSM14.1 tunicamycin-induced death, Annexin V/PI flow, 72 h. Put plainly: tunicamycin ER stress death protection – cell-based, undifferentiated CSM14.1, flow cytometry, orthogonal assay for ER stress death inhibitor project, SAR follow-up (AID 1349). The note with it: at 25 µM; active compounds read high.

Calls of active or inactive are those of the source.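 How the source made its calls: active means survival above the stress-only control level plus 20 points, here above 50%; inactive means the rest.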

Regarding `COc1ccc(C2CC(=O)C3=C(C2)Nc2ccccc2NC3c2cccc(C(F)(F)F)c2)cc1OC` (stereo unspecified), the survival was 82%.

As to `CCCOc1ccc(C2Nc3ccccc3NC3=C2C(=O)CC(c2ccc(OC)c(OC)c2)C3)cc1` (stereo unspecified), the survival was 74%.

For the molecule `O=C1CC(c2ccccc2)CC2=C1C(c1c(F)cccc1Cl)Nc1ccccc1N2` (stereo unspecified), the survival was 58%.

Take `COc1ccc(C2CC(=O)C3=C(C2)Nc2ccccc2NC3c2cccc(Br)c2)cc1OC` (stereo unspecified): the survival was 67%.

On to `CSc1ccc(C2Nc3ccccc3NC3=C2C(=O)CC(c2ccccc2)C3)cc1` (stereo unspecified), for which the survival is 62%.

On to `CC1(C)CC(=O)C2=C(C1)Nc1ccccc1NC2c1ccc(-c2ccccc2)cc1` (stereo unspecified), for which the survival was 92%.

As for `CCOc1cccc(C2Nc3ccccc3NC3=C2C(=O)CC(c2ccc(OC)cc2)C3)c1` (stereo unspecified), the survival was 49% (inactive).

Regarding `CCOc1cc(C2Nc3ccccc3NC3=C2C(=O)CC(c2ccc(OC)cc2)C3)cc(Cl)c1O` (stereo unspecified), the survival is 52%.

Take `COc1ccc(C2CC(=O)C3=C(C2)Nc2ccccc2NC3c2cc(C)ccc2C)cc1` (stereo unspecified): the survival is 70%.

For the molecule `COc1ccc(C2CC(=O)C3=C(C2)Nc2ccccc2NC3c2ccccc2C(F)(F)F)cc1OC` (stereo unspecified), the survival was 65%.

For `COc1ccc(C2CC(=O)C3=C(C2)Nc2ccccc2NC3c2cccc(Oc3ccccc3)c2)cc1OC` (stereo unspecified), the survival was 54%.
